According to ChEMBL document CHEMBL3400069, “The amide linker in nonpeptide neurotensin receptor ligands plays a key role in calcium signaling at the neurotensin receptor type 2” (Bioorg Med Chem Lett, 2015):
Activity calls are given as the source filed them. No cut-off for these calls is given here.

What was measured:
[1] = molecular target: T1, Neurotensin receptor type 2 (Rattus norvegicus, UniProt Q63384); assay: Displacement of [I125]neurotensin from rat NTS2 overexpressed in CHO-k1 cells by competitive binding Assay; type: cell-based
T1 sequence (Q63384 whole entry): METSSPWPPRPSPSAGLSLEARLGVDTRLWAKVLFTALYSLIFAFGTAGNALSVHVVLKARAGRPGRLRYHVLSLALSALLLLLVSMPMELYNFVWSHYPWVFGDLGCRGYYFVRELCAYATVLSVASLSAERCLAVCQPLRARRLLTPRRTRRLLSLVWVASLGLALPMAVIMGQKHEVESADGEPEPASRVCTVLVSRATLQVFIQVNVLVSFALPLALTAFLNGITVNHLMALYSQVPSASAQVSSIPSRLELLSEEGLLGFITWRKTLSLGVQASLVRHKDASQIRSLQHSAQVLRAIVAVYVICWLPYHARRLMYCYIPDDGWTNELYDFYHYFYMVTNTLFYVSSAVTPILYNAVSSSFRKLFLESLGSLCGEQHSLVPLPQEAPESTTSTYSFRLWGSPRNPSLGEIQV

[2] = molecular target: T1, Neurotensin receptor type 2; assay: Agonist activity at rat NTS2 overexpressed in CHO-k1 cells assessed as calcium mobilization by FLIPR assay; type: functional, cell-based
[3] = molecular target: Neurotensin receptor type 1 (Rattus norvegicus, UniProt P20789); assay: Displacement of [I125]neurotensin from rat NTS1 overexpressed in CHO-k1 cells by competitive binding Assay; type: cell-based
Neurotensin receptor type 1, sequence (P20789 whole entry): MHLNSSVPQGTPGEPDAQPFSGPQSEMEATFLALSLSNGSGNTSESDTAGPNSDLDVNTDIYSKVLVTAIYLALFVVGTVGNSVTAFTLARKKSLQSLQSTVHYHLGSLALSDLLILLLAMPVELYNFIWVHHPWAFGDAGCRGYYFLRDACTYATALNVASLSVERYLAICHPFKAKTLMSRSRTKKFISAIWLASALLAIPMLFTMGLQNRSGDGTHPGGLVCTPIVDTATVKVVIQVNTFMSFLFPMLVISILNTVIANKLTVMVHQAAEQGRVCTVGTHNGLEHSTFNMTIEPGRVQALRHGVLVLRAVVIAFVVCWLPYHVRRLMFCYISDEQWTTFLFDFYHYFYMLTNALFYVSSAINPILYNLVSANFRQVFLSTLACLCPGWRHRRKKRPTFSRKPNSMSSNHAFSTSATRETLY

[4] = molecular target: T2, Neurotensin receptor type 2 (Rattus norvegicus) (UniProt Q63384); assay: Agonist activity at rat NTS2 overexpressed in CHO-k1 cells assessed as calcium mobilization by FLIPR assay relative to SR142948a; type: functional, cell-based
T2 sequence (whole entry): T1 sequence (Q63384 whole entry)

[5] = molecular target: Neurotensin receptor type 1 (Rattus norvegicus) (UniProt P20789); assay: Antagonist activity at rat NTS1 overexpressed in CHO-k1 cells assessed as blockade of neurotensin-mediated calcium mobilization after 15 mins by FLIPR assay; type: functional, cell-based
Neurotensin receptor type 1 (Rattus norvegicus), sequence (P20789 whole entry): as above

Row | Compound | Ki [1] | EC50 ([2]; read-out: EC50) | Ki [3] | Emax [4] | Ke [5] | EC50 ([2]; cho-k1)
1 | COc1cccc(OC)c1-c1cc(NC(=O)C2(C(=O)O)CCCCC2)nn1-c1ccc(F)cc1 | 271 nM | 55 nM | > 25000 nM | 10% | inactive | 
2 | COc1ccccc1-c1cc(NC(=O)C2(C(=O)O)CCCCC2)nn1-c1ccc(F)cc1 | 6340 nM | 951 nM | > 25000 nM | 13% | inactive | 
3 | COc1ccccc1-c1cc(C(=O)NC2(C(=O)O)CCCCC2)nn1-c1ccc(F)cc1 |  |  | > 25000 nM |  |  | 
4 | COc1cccc(OC)c1-c1cc(NC(=O)C2(C(=O)O)CCCCC2)nn1-c1ccnc2cc(Cl)ccc12 | 140 nM |  | 7180 nM |  |  | Not Active
5 | COc1cccc(OC)c1-c1cc(NC(=O)C2(C(=O)O)CCCCC2)nn1-c1cccc2ccccc12 | 128 nM |  | 10200 nM |  |  | Not Active
6 | COc1cccc(OC)c1-c1cc(CN[C@H](C(=O)O)C2CCCCC2)nn1-c1ccnc2cc(Cl)ccc12 | > 10000 nM |  | > 10000 nM |  |  | Not Active
7 | COc1cccc(OC)c1-c1cc(C(=O)NC2(C(=O)O)CCCCC2)nn1-c1ccnc2cc(Cl)ccc12 |  |  | 177 nM |  |  | 
8 | COc1cccc(OC)c1-c1cc(C(=O)NC2(C(=O)O)CCCCC2)nn1-c1cccc2ccccc12 |  |  | 1210 nM |  |  | 
